Experimental data: patent US10584128B2, “Bicyclic dihydropyrimidine-carboxamide derivatives as Rho-Kinase inhibitors” (CHIESI FARMACEUTICI S.p.A., priority 2016, dated 2020)

Key:
[1] = target: Rho kinase 2 (Homo sapiens, UniProt O75116); assay: In vitro Rho kinase inhibitory activity assay (ADP-Glo kit, Myelin Basic Protein substrate); format: biochemical; conditions: 10 μM ATP, 25° C., read-out: ROCK2 inhibitory activity (Ki, range of activity)
In short: (§1)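 Each kinase (ROCK1 or ROCK2) sat with compound for 30 min at 25 °C before 10 μM ATP started a 1 h reaction on 2.5 μM myelin basic protein (Tris pH 7.5, MgCl2, BSA, DTT, 1% DMSO). ADP formed was read by ADP-Glo luminescence. Dose-response IC50s were converted to Ki by Cheng-Prusoff.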

[2] = target: Rho kinase 1 (Homo sapiens, UniProt Q13464); assay: as above; format: biochemical; conditions: 10 μM ATP, 25° C., read-out: ROCK1 inhibitory activity (Ki, range of activity)
In short: as §1

Chain of Rho kinase 2 (O75116 whole entry): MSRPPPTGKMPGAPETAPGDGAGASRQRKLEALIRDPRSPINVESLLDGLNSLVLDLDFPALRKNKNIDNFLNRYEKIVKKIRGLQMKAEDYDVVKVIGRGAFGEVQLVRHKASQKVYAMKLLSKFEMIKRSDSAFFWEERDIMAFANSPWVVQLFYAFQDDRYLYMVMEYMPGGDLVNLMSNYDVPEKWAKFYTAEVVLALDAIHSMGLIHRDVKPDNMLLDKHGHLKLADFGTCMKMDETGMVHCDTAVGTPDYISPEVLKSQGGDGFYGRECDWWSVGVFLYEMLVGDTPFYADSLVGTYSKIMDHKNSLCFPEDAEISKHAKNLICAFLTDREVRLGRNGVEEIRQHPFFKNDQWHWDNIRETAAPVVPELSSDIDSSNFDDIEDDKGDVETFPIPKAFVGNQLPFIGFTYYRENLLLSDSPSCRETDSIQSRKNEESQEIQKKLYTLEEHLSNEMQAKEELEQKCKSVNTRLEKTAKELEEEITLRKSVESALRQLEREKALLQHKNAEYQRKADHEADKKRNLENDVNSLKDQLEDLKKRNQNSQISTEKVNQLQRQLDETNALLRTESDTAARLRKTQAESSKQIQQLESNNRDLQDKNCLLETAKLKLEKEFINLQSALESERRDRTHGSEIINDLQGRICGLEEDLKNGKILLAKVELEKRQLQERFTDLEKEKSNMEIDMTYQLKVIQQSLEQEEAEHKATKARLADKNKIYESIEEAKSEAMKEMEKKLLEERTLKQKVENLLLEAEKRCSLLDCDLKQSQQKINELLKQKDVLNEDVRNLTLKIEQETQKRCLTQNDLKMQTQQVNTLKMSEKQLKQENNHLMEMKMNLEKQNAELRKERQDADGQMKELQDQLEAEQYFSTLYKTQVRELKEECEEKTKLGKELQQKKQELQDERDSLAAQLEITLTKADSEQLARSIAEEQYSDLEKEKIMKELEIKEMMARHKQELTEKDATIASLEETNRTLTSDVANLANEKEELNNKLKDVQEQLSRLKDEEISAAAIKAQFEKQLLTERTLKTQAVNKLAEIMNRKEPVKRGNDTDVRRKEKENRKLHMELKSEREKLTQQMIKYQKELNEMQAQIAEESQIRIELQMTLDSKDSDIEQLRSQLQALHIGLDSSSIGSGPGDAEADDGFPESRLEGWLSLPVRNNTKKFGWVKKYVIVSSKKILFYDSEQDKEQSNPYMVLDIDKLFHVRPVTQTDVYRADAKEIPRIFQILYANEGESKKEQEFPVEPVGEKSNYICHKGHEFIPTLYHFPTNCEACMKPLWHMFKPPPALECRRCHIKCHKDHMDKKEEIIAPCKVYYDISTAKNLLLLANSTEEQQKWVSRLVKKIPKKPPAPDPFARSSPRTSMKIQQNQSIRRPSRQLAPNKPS
Chain of Rho kinase 1 (Q13464 whole entry): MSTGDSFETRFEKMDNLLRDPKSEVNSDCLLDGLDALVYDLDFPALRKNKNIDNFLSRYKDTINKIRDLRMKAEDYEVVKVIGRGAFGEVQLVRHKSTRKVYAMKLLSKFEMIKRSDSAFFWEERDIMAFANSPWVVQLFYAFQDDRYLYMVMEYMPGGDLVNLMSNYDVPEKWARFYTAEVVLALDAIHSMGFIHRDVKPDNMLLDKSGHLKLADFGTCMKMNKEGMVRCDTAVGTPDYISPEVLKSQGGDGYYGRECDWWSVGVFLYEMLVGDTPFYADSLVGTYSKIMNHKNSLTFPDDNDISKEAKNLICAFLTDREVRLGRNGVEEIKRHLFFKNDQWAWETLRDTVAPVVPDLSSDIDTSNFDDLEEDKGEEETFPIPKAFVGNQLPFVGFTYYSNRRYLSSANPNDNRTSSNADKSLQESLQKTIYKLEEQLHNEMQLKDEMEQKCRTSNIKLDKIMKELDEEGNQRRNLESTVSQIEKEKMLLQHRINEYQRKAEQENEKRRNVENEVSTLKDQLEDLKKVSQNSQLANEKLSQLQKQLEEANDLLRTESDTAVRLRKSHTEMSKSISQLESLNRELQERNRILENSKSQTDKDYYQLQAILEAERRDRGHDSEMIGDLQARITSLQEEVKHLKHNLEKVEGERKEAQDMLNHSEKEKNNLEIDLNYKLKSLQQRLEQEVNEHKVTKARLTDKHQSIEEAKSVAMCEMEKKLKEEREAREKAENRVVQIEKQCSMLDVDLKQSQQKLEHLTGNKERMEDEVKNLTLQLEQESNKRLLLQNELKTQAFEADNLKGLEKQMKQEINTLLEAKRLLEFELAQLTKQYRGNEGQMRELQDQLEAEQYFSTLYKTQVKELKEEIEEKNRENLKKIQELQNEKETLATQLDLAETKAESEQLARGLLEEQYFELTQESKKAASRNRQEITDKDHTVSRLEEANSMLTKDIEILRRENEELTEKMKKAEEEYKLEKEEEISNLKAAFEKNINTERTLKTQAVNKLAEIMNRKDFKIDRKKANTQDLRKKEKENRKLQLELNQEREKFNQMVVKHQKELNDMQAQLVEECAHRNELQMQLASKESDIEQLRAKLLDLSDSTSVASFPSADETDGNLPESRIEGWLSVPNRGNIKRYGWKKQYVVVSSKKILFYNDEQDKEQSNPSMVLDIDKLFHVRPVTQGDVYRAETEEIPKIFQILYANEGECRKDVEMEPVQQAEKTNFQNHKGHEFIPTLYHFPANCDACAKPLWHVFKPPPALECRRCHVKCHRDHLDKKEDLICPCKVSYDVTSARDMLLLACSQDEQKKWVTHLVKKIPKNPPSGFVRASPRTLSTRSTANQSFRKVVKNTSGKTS

SMILES | Ki [1] | Ki [2]
CCOC(=O)c1cc2n(n1)C(c1ccc(Cl)nc1)C(C(=O)Nc1ccc3[nH]ncc3c1)=C(C)N2 (centres unmarked) [Example 5, ethyl 6-((1H-indazol-5-yl)carbamoyl)-7-(6-chloropyridin-3-yl)-5-methyl-4,7-dihydropyrazolo[1,5-a]pyrimidine-2-carboxylate] | < 50 nM | < 50 nM
CCOC(=O)c1cc2n(n1)C(c1cccc(OC)c1)C(C(=O)Nc1ccc3[nH]ncc3c1)=C(C)N2 (centres unmarked) [Example 6, ethyl 6-((1H-indazol-5-yl)carbamoyl)-7-(3-methoxyphenyl)-5-methyl-4,7-dihydropyrazolo[1,5-a]pyrimidine-2-carboxylate] | 50 to 500 nM | 50 to 500 nM
CCOC(=O)c1cc2n(n1)C(c1nc3ccccc3s1)C(C(=O)Nc1ccc3cnccc3c1)=C(C)N2 (centres unmarked) [Example 8, ethyl 7-(benzo[d]thiazol-2-yl)-6-(isoquinolin-6-ylcarbamoyl)-5-methyl-4,7-dihydropyrazolo[1,5-a]pyrimidine-2-carboxylate] | < 50 nM | < 50 nM
CCOC(=O)c1cc2n(n1)C(c1ccc(O)cc1)C(C(=O)Nc1ccc3cnccc3c1)=C(C)N2 (centres unmarked) [Example 9, ethyl 7-(4-hydroxyphenyl)-6-(isoquinolin-6-ylcarbamoyl)-5-methyl-4,7-dihydropyrazolo[1,5-a]pyrimidine-2-carboxylate] | < 50 nM | < 50 nM
CCOC(=O)c1cc2n(n1)C(c1ccc(O)c(F)c1)C(C(=O)Nc1ccc3cnccc3c1)=C(C)N2 (centres unmarked) [Example 10, ethyl 7-(3-fluoro-4-hydroxyphenyl)-6-(isoquinolin-6-ylcarbamoyl)-5-methyl-4,7-dihydropyrazolo[1,5-a]pyrimidine-2-carboxylate] | < 50 nM | < 50 nM
CCOC(=O)c1cc2n(n1)C(C1CCOCC1)C(C(=O)Nc1ccc3[nH]ncc3c1)=C(C)N2 (centres unmarked) [Example 11, ethyl 6-((1H-indazol-5-yl)carbamoyl)-5-methyl-7-(tetrahydro-2H-pyran-4-yl)-4,7-dihydropyrazolo[1,5-a]pyrimidine-2-carboxylate] | 50 to 500 nM | 50 to 500 nM
CCOC(=O)c1cc2n(n1)C(C1CCN(C)CC1)C(C(=O)Nc1ccc3[nH]ncc3c1)=C(C)N2 (centres unmarked) [Example 12, ethyl 6-((1H-indazol-5-yl)carbamoyl)-5-methyl-7-(1-methylpiperidin-4-yl)-4,7-dihydropyrazolo[1,5-a]pyrimidine-2-carboxylate] | > 500 nM | > 500 nM
CCOC(=O)c1cc2n(n1)C(CC(C)C)C(C(=O)Nc1ccc3[nH]ncc3c1)=C(C)N2 (centres unmarked) [Example 13, ethyl 6-((1H-indazol-5-yl)carbamoyl)-7-isobutyl-5-methyl-4,7-dihydropyrazolo[1,5-a]pyrimidine-2-carboxylate] | 50 to 500 nM | 50 to 500 nM
CCOC(=O)c1cc2n(n1)C(C1CCCCC1)C(C(=O)Nc1ccc3[nH]ncc3c1)=C(C)N2 (centres unmarked) [Example 14, ethyl 6-((1H-indazol-5-yl)carbamoyl)-7-cyclohexyl-5-methyl-4,7-dihydropyrazolo[1,5-a]pyrimidine-2-carboxylate] | < 50 nM | 50 to 500 nM
CCOC(=O)c1cc2n(n1)C(c1ccc(C(F)(F)F)c(F)c1)C(C(=O)Nc1ccn3cnnc3c1)=C(C)N2 (centres unmarked) [Example 15, ethyl 6-([1,2,4]triazolo[4,3-a]pyridin-7-ylcarbamoyl)-7-(3-fluoro-4-(trifluoromethyl)phenyl)-5-methyl-4,7-dihydropyrazolo[1,5-a]pyrimidine-2-carboxylate] | > 500 nM | > 500 nM
CCOC(=O)c1nn2c(c1C#N)NC(C)=C(C(=O)Nc1ccc3[nH]ncc3c1)C2c1ccc(C(F)(F)F)cc1 (centres unmarked) [Example 16, ethyl 6-((1H-indazol-5-yl)carbamoyl)-3-cyano-5-methyl-7-(4-(trifluoromethyl)phenyl)-4,7-dihydropyrazolo[1,5-a]pyrimidine-2-carboxylate] | < 50 nM | < 50 nM
CC1=C(C(=O)Nc2ccc3[nH]ncc3c2)C(C2CCN(C)CC2)n2nc(C(F)(F)F)cc2N1 (centres unmarked) [Example 33, N-(1H-indazol-5-yl)-5-methyl-7-(1-methylpiperidin-4-yl)-2-(trifluoromethyl)-4,7-dihydropyrazolo[1,5-a]pyrimidine-6-carboxamide] | > 500 nM | > 500 nM
COCc1cc2n(n1)C(c1ccc(C(F)(F)F)c(F)c1)C(C(=O)Nc1ccc3cnccc3c1)=C(C)N2 (centres unmarked) [Example 36, 7-(3-fluoro-4-(trifluoromethyl)phenyl)-N-(isoquinolin-6-yl)-2-(methoxymethyl)-5-methyl-4,7-dihydropyrazolo[1,5-a]pyrimidine-6-carboxamide] | < 50 nM | < 50 nM
CC1=C(C(=O)Nc2ccc3cnccc3c2)C(c2ccc(C(F)(F)F)c(F)c2)n2nc(CCN(C)C)cc2N1 (centres unmarked) [Example 37, 2-(2-(dimethylamino)ethyl)-7-(3-fluoro-4-(trifluoromethyl)phenyl)-N-(isoquinolin-6-yl)-5-methyl-4,7-dihydropyrazolo[1,5-a]pyrimidine-6-carboxamide] | < 50 nM | < 50 nM

Further lines, results first:

Ki [1] | Ki [2] | SMILES
< 50 nM | < 50 nM | CCOC(=O)c1cc2n(n1)C(c1ccc(C(F)(F)F)cc1)C(C(=O)Nc1ccc3[nH]ncc3c1)=C(C)N2 (centres unmarked) [Example 2, ethyl 6-((1H-indazol-5-yl)carbamoyl)-5-methyl-7-(4-(trifluoromethyl)phenyl)-4,7-dihydropyrazolo[1,5-a]pyrimidine-2-carboxylate]
< 50 nM | < 50 nM | CCOC(=O)c1cc2n(n1)C(c1ccc(C)cc1)C(C(=O)Nc1ccc3[nH]ncc3c1)=C(C)N2 (centres unmarked) [Example 3, ethyl 6-((1H-indazol-5-yl)carbamoyl)-5-methyl-7-(p-tolyl)-4,7-dihydropyrazolo[1,5-a]pyrimidine-2-carboxylate]
> 500 nM | > 500 nM | CCOC(=O)c1cnn2c1NC(C)=C(C(=O)Nc1ccc3[nH]ncc3c1)C2c1ccc(F)cc1 (centres unmarked) [Example 17, ethyl 6-((1H-indazol-5-yl)carbamoyl)-7-(4-fluorophenyl)-5-methyl-4,7-dihydropyrazolo[1,5-a]pyrimidine-3-carboxylate]
< 50 nM | < 50 nM | CC1=C(C(=O)Nc2ccc3[nH]ncc3c2)C(c2ccc(F)cc2)n2ncc(C#N)c2N1 (centres unmarked) [Example 18, 3-cyano-7-(4-fluorophenyl)-N-(1H-indazol-5-yl)-5-methyl-4,7-dihydropyrazolo[1,5-a]pyrimidine-6-carboxamide]
50 to 500 nM | 50 to 500 nM | CC1=C(C(=O)Nc2ccc3[nH]ncc3c2)C(c2ccc(F)cc2)n2ncc(C(N)=O)c2N1 (centres unmarked) [Example 19, 7-(4-fluorophenyl)-N6-(1H-indazol-5-yl)-5-methyl-4,7-dihydropyrazolo[1,5-a]pyrimidine-3,6-dicarboxamide]
< 50 nM | < 50 nM | COc1ccc(-c2cc3n(n2)C(c2ccc(F)cc2)C(C(=O)Nc2ccc4[nH]ncc4c2)=C(C)N3)cc1 (centres unmarked) [Example 20, 7-(4-fluorophenyl)-N-(1H-indazol-5-yl)-2-(4-methoxyphenyl)-5-methyl-4,7-dihydropyrazolo[1,5-a]pyrimidine-6-carboxamide]
50 to 500 nM | 50 to 500 nM | COc1ccccc1-c1cc2n(n1)C(c1ccc(F)cc1)C(C(=O)Nc1ccc3[nH]ncc3c1)=C(C)N2 (centres unmarked) [Example 21, 7-(4-fluorophenyl)-N-(1H-indazol-5-yl)-2-(2-methoxyphenyl)-5-methyl-4,7-dihydropyrazolo[1,5-a]pyrimidine-6-carboxamide]
< 50 nM | < 50 nM | CC1=C(C(=O)Nc2ccc3[nH]ncc3c2)C(c2ccc(F)cc2)n2ncc(Br)c2N1 (centres unmarked) [Example 22, 3-bromo-7-(4-fluorophenyl)-N-(1H-indazol-5-yl)-5-methyl-4,7-dihydropyrazolo[1,5-a]pyrimidine-6-carboxamide]
< 50 nM | < 50 nM | CC1=C(C(=O)Nc2ccc3[nH]ncc3c2)C(c2ccc(F)cc2)n2nc(C)cc2N1 (centres unmarked) [Example 28, 7-(4-fluorophenyl)-N-(1H-indazol-5-yl)-2,5-dimethyl-4,7-dihydropyrazolo[1,5-a]pyrimidine-6-carboxamide]
< 50 nM | < 50 nM | CC1=C(C(=O)Nc2ccc3[nH]ncc3c2)C(c2ccc(F)cc2)n2nc(C(C)(C)C)cc2N1 (centres unmarked) [Example 29, 2-(tert-butyl)-7-(4-fluorophenyl)-N-(1H-indazol-5-yl)-5-methyl-4,7-dihydropyrazolo[1,5-a]pyrimidine-6-carboxamide]
< 50 nM | < 50 nM | CC1=C(C(=O)Nc2ccc3[nH]ncc3c2)C(c2ccc(F)cc2)n2nc(Br)cc2N1 (centres unmarked) [Example 30, 2-bromo-7-(4-fluorophenyl)-N-(1H-indazol-5-yl)-5-methyl-4,7-dihydropyrazolo[1,5-a]pyrimidine-6-carboxamide]
< 50 nM | < 50 nM | CC1=C(C(=O)Nc2ccc3[nH]ncc3c2)C(c2ccc(F)cc2)n2nc(C#N)cc2N1 (centres unmarked) [Example 31, 2-cyano-7-(4-fluorophenyl)-N-(1H-indazol-5-yl)-5-methyl-4,7-dihydropyrazolo[1,5-a]pyrimidine-6-carboxamide]
< 50 nM | < 50 nM | CC1=C(C(=O)Nc2ccc3[nH]ncc3c2)C(c2ccc(C(F)(F)F)cc2)n2nc(C#N)cc2N1 (centres unmarked) [Example 34, 2-cyano-N-(1H-indazol-5-yl)-5-methyl-7-(4-(trifluoromethyl)phenyl)-4,7-dihydropyrazolo[1,5-a]pyrimidine-6-carboxamide]
< 50 nM | < 50 nM | COCc1cc2n(n1)C(c1ccc(C(F)(F)F)cc1)C(C(=O)Nc1ccc3[nH]ncc3c1)=C(C)N2 (centres unmarked) [Example 35, N-(1H-indazol-5-yl)-2-(methoxymethyl)-5-methyl-7-(4-(trifluoromethyl)phenyl)-4,7-dihydropyrazolo[1,5-a]pyrimidine-6-carboxamide]
